Data from US12239713B2, “Degradable polyethylene glycol conjugate” (NOF CORPORATION, priority 2018, dated 2025).
Where no end group is shown, it is not given here.

System: blood calcium concentration
Assay: Evaluation of physiological activity of PEGylated salmon calcitonin (blood calcium concentration)
Format: in vivo, Mouse Balb/c
Details: sCT dose 40 μg/kg, blood at 1, 3, 6, 24 hr, compared to saline (PBS) group, FIG. 10
Procedure: The method for evaluating the physiological activity of a bio-related substance bonded to a degradable polyethylene glycol derivative is not particular limited. For example, when the bio-related substance is insulin, blood sugar concentration is measured, and when it is calcitonin, blood calcium concentration is measured, by periodically collecting blood from the animal that received administration and measuring the substance in the blood by using an appropriate analytical instrument, and the like, based on which the evaluation can be performed. Specifically, in the case of insulin, a glucose measurement kit is used to monitor a decrease in glucose concentration after administration and, in the case of calcitonin, a decrease in calcium concentration after administration is monitored using a calcium measurement kit, based on which the evaluation can be performed.
The physiological activities of 4 groups of ME-200GLFG (SEQ ID NO: 4) (L)-200-sCT which is SCT to which degradable polyethylene glycol derivative with a molecular weight of 40,000 is bonded and obtained in Example 16, methoxy PEG 40 kDa-sCT bonded to nondegradable methoxy PEG 40 kDa, unmodified sCT, and saline were comparatively evaluated in animal experiments. […]

salmon calcitonin (CSNLSTCVLGKLSQELHKLQTYPRTNTGSGTP; ends and bridges not checked; cysteine pairing not given here) [Unmodified sCT]
calcium concentration in blood (in words): showed an increase in calcium concentration 6 hr after administration
